Results on four compounds are retold here after US9562053B2, “Benzo-fused heterocyclic derivatives useful as agonists of GPR120” (Janssen Pharmaceutica NV, priority 2013, dated 2017).

Usually EC50 stands for the concentration that produces a half-maximal response.

This experiment concerns the target T1, long form of human GPR120 (Homo sapiens, UniProt Q5NUL3).
T1 construct: host or cells: PathHunter CHO-K1 GPR120 β-Arrestin Cell Line
T1 sequence (Q5NUL3 1-377 isoform Q5NUL3-1): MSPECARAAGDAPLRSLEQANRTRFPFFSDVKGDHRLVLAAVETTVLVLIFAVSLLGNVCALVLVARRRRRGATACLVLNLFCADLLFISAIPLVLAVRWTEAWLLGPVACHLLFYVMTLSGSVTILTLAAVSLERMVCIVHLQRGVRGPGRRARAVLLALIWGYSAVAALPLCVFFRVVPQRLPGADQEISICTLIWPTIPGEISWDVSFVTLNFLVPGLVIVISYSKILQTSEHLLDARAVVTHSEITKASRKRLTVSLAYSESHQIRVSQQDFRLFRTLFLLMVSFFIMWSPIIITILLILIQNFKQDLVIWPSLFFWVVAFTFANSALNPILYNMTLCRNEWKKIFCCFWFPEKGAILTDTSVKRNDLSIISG
The experiment can be described thus: Human GPR120 DiscoveRx PathHunter Beta-Arrestin Assay, Procedure β-arrestin A (3000 cells per well). It is filed as cell-based. The following applies: read-out: GPR120 B-arrestin A EC50. The gist of the method: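 PathHunter CHO-K1 cells with long-form receptor, 3000/well, seeded overnight at 37 °C; equilibrated 60 min at 37 °C in HBSS/20 mM HEPES/0.1% BSA, pH 7.4. Compound serial dilutions (25–0.012 μM) added for 90 min at 37 °C, detection 60 min at room temperature, luminescence read; EC50 from % of positive control, Hill slope fixed at 1.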
For the compound `Cc1cc2cc(Cl)cc(COc3ccc(CCC(=O)O)c(C)c3C)c2s1` [Compound 91, 3-{4-[(5-Chloro-2-methyl-1-benzothiophen-7-yl)methoxy]-2,3-dimethylphenyl}propanoic acid], the EC50 was 0.629 µM. In the case of `Cc1cc2cc(Cl)cc(COc3c(F)cc(CCCO)cc3F)c2s1` [Compound 93, 3-{4-[(5-Chloro-2-methyl-1-benzothiophen-7-yl)methoxy]-3,5-difluorophenyl}propan-1-ol] it was 0.536 µM. The same measure for `Cc1c(CCC(=O)O)ccc(OCc2cc(OC(F)(F)F)cc3cc(CC(F)F)oc23)c1C` [Compound 96, 3-(4-{[2-(2,2-Difluoroethyl)-5-(trifluoromethoxy)-1-benzofuran-7-yl]methoxy}-2,3-dimethylphenyl)propanoic acid]: 0.148 µM; for `Cc1nc2c(COc3ccc(CCC(=O)O)c(C)c3C)cc(Cl)cc2s1` [Compound 98, 3-{4-[(6-Chloro-2-methyl-1,3-benzothiazol-4-yl)methoxy]-2,3-dimethylphenyl}propanoic acid]: 0.154 µM.
